Read-outs that look alike come from different tables or passages of the source.
Legend:
[1] = target: GDP-bound KRAS protein (aa 1-169), containing both G12C and C118A amino acid substitutions (Homo sapiens, UniProt P01116, C118A/G12C); assay: Coupled nucleotide exchange assay (SOS-mediated, AlphaScreen); type: biochemical
Method: Coupled Nucleotide Exchange Assay:
For all subsequent steps, DTT was added to the reaction buffer at a final concentration of 1 mM. […] The assay plates were then read on a plate reader measuring luminescence signal. Signal intensity of compound-containing wells were normalized to DMSO control, and data were analyzed using a 4-parameter logistic model to calculate IC50 values.

[2] = tested on: MIA PaCa-2 (human pancreatic carcinoma) cells; assay: Cell viability assay (CellTiter-Glo), MIA PaCa-2; type: cell-based; conditions: 72 h
Method: (§1) MIA PaCa-2 (human pancreatic carcinoma; ATCC CRL-1420) or A549 (human lung carcinoma; ATCC CCL-185) cells were cultured in RPMI 1640 medium containing 10% fetal bovine serum and 1× penicillin/streptomycin/L-glutamine. Cells were seeded in 384-well plates at a density of 1.67E+04 cells/mL and incubated at 37° C., 5% CO2, overnight. Serially-diluted compound or DMSO was added to the cells, and plates were incubated at 37° C., 5% CO2 for 72 h. Cell viability was measured using a CellTiter-Glo® Luminescent Cell Viability Assay kit (Promega) according to the manufacturer's protocol. The luminescence signal of treated samples was normalized to DMSO control, and data were analyzed using a 4-parameter logistic model to calculate IC50 values.

[3] = tested on: A549 (human lung carcinoma) cells; assay: Cell viability assay (CellTiter-Glo), A549; type: cell-based; conditions: 72 h
Method: as §1

[4] = 2 h compound pre-incubation, read-out: Avg 2 h Coupled exchange IC50
[5] = 20 h compound pre-incubation (values marked * in Table 6), read-out: Avg 20 h Coupled exchange IC50

Chain of GDP-bound KRAS protein (aa 1-169), containing both G12C and C118A amino acid substitutions (P01116 1-169 isoform P01116-2 G12C/C118A): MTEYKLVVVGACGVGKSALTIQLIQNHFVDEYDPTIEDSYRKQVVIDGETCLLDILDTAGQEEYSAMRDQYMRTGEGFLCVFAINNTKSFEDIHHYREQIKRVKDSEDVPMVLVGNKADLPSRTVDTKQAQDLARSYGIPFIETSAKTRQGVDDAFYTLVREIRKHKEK

**Q.** For `C=CC(=O)N1CC2(CCN(c3nc4c(c(N[C@@H](CC(=O)NC)c5cccc(C#N)c5)n3)CCCC4)C2)C1` (single isomer, unassigned) [Example 1-21-1], which IC50 [1, 4] is on record?
**A.** 9.085 µM

**Q.** And the IC50 [2]?
**A.** 10.5 µM

**Q.** And the IC50 [3]?
**A.** > 25 µM

**Q.** How did the IC50 [1, 4] turn out when `C=CC(=O)N1CC2(CCN(c3nc4c(c(N[C@H](CC(=O)NC)c5cccc(C#N)c5)n3)CCCC4)C2)C1` (single isomer, unassigned) [Example 1-21-2] was run?
**A.** 129.95 µM

**Q.** What about the IC50 [2] of the same compound?
**A.** 14 µM

**Q.** And the IC50 [3]?
**A.** > 25 µM

**Q.** With `C=CC(=O)N1CC2(C[C@H](CO)N(c3nc4c(c(N[C@H](CC(=O)NC)CC(C)C)n3)CCCC4)C2)C1` (single isomer, unassigned) [Example 1-24-1] as the compound, how does the IC50 [1, 4] read?
**A.** 4.58 µM

**Q.** And the IC50 [2]?
**A.** 5.99 µM

**Q.** And the IC50 [3]?
**A.** > 25 µM

**Q.** With `C=CC(=O)N1CC2(C[C@@H](CO)N(c3nc4c(c(N[C@H](CC(=O)NC)CC(C)C)n3)CCCC4)C2)C1` (single isomer, unassigned) [Example 1-24-2] as the compound, how does the IC50 [1, 4] read?
**A.** 59.1 µM

**Q.** What about the IC50 [2] of the same compound?
**A.** > 25 µM

**Q.** What about the IC50 [3] of the same compound?
**A.** > 25 µM

**Q.** Which results are given for `C=CC(=O)N1CC2(CCN(c3nc4c(c(N[C@H](CC(=O)NC)CC(C)C)n3)CCCC4)C2)C1` [Example 1-1, (S)-3-((2-(2-acryloyl-2,6-diazaspiro[3.4]octan-6-yl)-5,6,7,8-tetrahydroquinazolin-4-yl)amino)-N,5-dimethylhexanamide]?
**A.** IC50 [1, 4]: 0.702 µM; IC50 [2]: 0.887 µM; IC50 [3]: > 25 µM

**Q.** With `C=CC(=O)N1CC2(C1)CN(c1nc3c(c(N[C@H](CC(=O)NC)CC(C)C)n1)CCC(C)C3)CC2(F)F` (stereo partly drawn) [Example 1-2, (3S)-3-((2-(8,8-difluoro-2-(2-propenoyl)-2,6-diazaspiro[3.4]octan-6-yl)-7-methyl-5,6,7,8-tetrahydro-4-quinazolinyl)amino)-N,5-dimethylhexanamide] as the compound, how does the IC50 [1, 4] read?
**A.** 0.019 µM

**Q.** What about the IC50 [2] of the same compound?
**A.** 0.047 µM

**Q.** What about the IC50 [3] of the same compound?
**A.** 15.1 µM

**Q.** What does the source list for `C=CC(=O)N1CC2(CCN(c3nc4c(c(N[C@H](CC(=O)NC)CC(C)C)n3)CCC(C)C4)C2)C1` (stereo partly drawn) [Example 1-3, (3S)-N,5-dimethyl-3-((7-methyl-2-(2-(2-propenoyl)-2,6-diazaspiro[3.4]octan-6-yl)-5,6,7,8-tetrahydro-4-quinazolinyl)amino)hexanamide]?
**A.** IC50 [1, 4]: 0.216 µM; IC50 [2]: 0.217 µM; IC50 [3]: 32.6 µM

**Q.** What does the source list for `C=CC(=O)N1CC2(CCN(c3nc4c(c(N[C@H](CC(=O)NC)CC(C)C)n3)CCC4)C2)C1` [Example 1-4, (3S)-N,5-dimethyl-3-((2-(2-(2-propenoyl)-2,6-diazaspiro[3.4]octan-6-yl)-6,7-dihydro-5H-cyclopenta[d]pyrimidin-4-yl)amino)hexanamide]?
**A.** IC50 [1, 4]: 2.37 µM; IC50 [2]: 2.59 µM; IC50 [3]: > 5 µM

**Q.** What does the source list for `C=CC(=O)N1CC2(CCN(c3nc(N[C@H](CC(=O)NC)CC(C)C)c4ccccc4n3)C2)C1` [Example 1-5, (3S)-N,5-dimethyl-3-((2-(2-(2-propenoyl)-2,6-diazaspiro[3.4]octan-6-yl)-4-quinazolinyl)amino)hexanamide]?
**A.** IC50 [1, 4]: 1.1 µM; IC50 [2]: 1.23 µM; IC50 [3]: 18.4 µM

**Q.** For `C=CC(=O)N1CC2(CCN(c3cc4ccccc4c(N[C@H](CC(=O)NC)CC(C)C)n3)C2)C1` [Example 1-6, (3S)-N,5-dimethyl-3-((3-(2-(2-propenoyl)-2,6-diazaspiro[3.4]octan-6-yl)-1-isoquinolinyl)amino)hexanamide], which IC50 [1, 5] is on record?
**A.** 0.424 µM

**Q.** What about the IC50 [2] of the same compound?
**A.** 8.21 µM

**Q.** And the IC50 [3]?
**A.** > 25 µM

**Q.** What does the source list for `C=CC(=O)N1CC2(CCN(c3nc(N[C@H](CC(=O)NC)CC(C)C)c4occc4n3)C2)C1` [Example 1-7, (3S)-N,5-dimethyl-3-((2-(2-(2-propenoyl)-2,6-diazaspiro[3.4]octan-6-yl)furo[3,2-d]pyrimidin-4-yl)amino)hexanamide]?
**A.** IC50 [1, 5]: 0.494 µM; IC50 [2]: 58.1 µM; IC50 [3]: > 5 µM

**Q.** With `C=CC(=O)N1CC2(CCN(c3nc(N[C@H](CC(=O)NC)CC(C)C)c4c(n3)[C@H](C)CCC4)C2)C1` [Example 1-8, (3S)-N,5-dimethyl-3-(((8R)-8-methyl-2-(2-(2-propenoyl)-2,6-diazaspiro[3.4]octan-6-yl)-5,6,7,8-tetrahydro-4-quinazolinyl)amino)hexanamide] as the compound, how does the IC50 [1, 4] read?
**A.** 1.1 µM

**Q.** And the IC50 [2]?
**A.** 1 µM

**Q.** What about the IC50 [3] of the same compound?
**A.** > 5 µM

**Q.** With `C=CC(=O)N1CC2(CCN(c3nc4c(c(N[C@H](CC(=O)NC)CC(C)C)n3)CN(C(C)=O)C4)C2)C1` [Example 1-9, (3S)-3-((6-acetyl-2-(2-(2-propenoyl)-2,6-diazaspiro[3.4]octan-6-yl)-6,7-dihydro-5H-pyrrolo[3,4-d]pyrimidin-4-yl)amino)-N,5-dimethylhexanamide] as the compound, how does the IC50 [1, 5] read?
**A.** 0.472 µM

**Q.** What about the IC50 [2] of the same compound?
**A.** > 5 µM

**Q.** What about the IC50 [3] of the same compound?
**A.** > 5 µM

**Q.** Which IC50 [1, 4] does the source give for `C=CC(=O)N1CC2(CCN(c3nc(N[C@H](CC(=O)NC)CC(C)C)c4nn(C)cc4n3)C2)C1` [Example 1-10, (3S)-N,5-dimethyl-3-((2-methyl-5-(2-(2-propenoyl)-2,6-diazaspiro[3.4]octan-6-yl)-2H-pyrazolo[4,3-d]pyrimidin-7-yl)amino)hexanamide] here?
**A.** 0.916 µM

**Q.** What about the IC50 [2] of the same compound?
**A.** 3.63 µM

**Q.** And the IC50 [3]?
**A.** > 25 µM

**Q.** For `C=CC(=O)N1CC2(CCN(c3nc(N[C@H](CC(=O)NC)CC(C)C)c4ncsc4n3)C2)C1` [Example 1-11, (3S)-N,5-dimethyl-3-((5-(2-(2-propenoyl)-2,6-diazaspiro[3.4]octan-6-yl)[1,3]thiazolo[5,4-d]pyrimidin-7-yl)amino)hexanamide], which IC50 [1, 5] is on record?
**A.** 0.395 µM

**Q.** What about the IC50 [2] of the same compound?
**A.** > 5 µM

**Q.** What about the IC50 [3] of the same compound?
**A.** > 5 µM

**Q.** Which IC50 [1, 4] does the source give for `C=CC(=O)N1CC2(CCN(c3nc4c(c(N[C@H](CC5=NC(C)(C)C(=O)N5)CC(C)C)n3)CCCC4)C2)C1` [Example 1-12, 5,5-dimethyl-2-((2S)-4-methyl-2-((2-(2-(2-propenoyl)-2,6-diazaspiro[3.4]octan-6-yl)-5,6,7,8-tetrahydro-4-quinazolinyl)amino)pentyl)-3,5-dihydro-4H-imidazol-4-one] here?
**A.** 3.93 µM

**Q.** And the IC50 [2]?
**A.** 10.5 µM

**Q.** What about the IC50 [3] of the same compound?
**A.** > 25 µM

**Q.** Which results are given for `C=CC(=O)N1CC2(CCN(c3nc4c(c(N[C@H](CC(=O)NC)CC(C)C)n3)COC4)C2)C1` [Example 1-13, (3S)-N,5-dimethyl-3-((2-(2-(2-propenoyl)-2,6-diazaspiro[3.4]octan-6-yl)-5,7-dihydrofuro[3,4-d]pyrimidin-4-yl)amino)hexanamide]?
**A.** IC50 [1, 5]: 5.85 µM; IC50 [2]: > 5 µM; IC50 [3]: > 5 µM

**Q.** Which IC50 [1, 4] does the source give for `C=CC(=O)N1CC2(CCN(c3nc(N[C@H](CC(=O)NC)CC(C)C)c4c(ncn4C)n3)C2)C1` [Example 1-14, (3S)-N,5-dimethyl-3-((7-methyl-2-(2-(2-propenoyl)-2,6-diazaspiro[3.4]octan-6-yl)-7H-purin-6-yl)amino)hexanamide] here?
**A.** 196 µM

**Q.** What about the IC50 [2] of the same compound?
**A.** > 25 µM

**Q.** And the IC50 [3]?
**A.** > 25 µM

**Q.** How did the IC50 [1, 4] turn out when `C=CC(=O)N1CC2(CCN(c3nc(N[C@H](CC(=O)NC)CC(C)C)c4c(n3)[C@@H](C)CCC4)C2)C1` [Example 1-15, (3S)-N,5-dimethyl-3-(((8S)-8-methyl-2-(2-(2-propenoyl)-2,6-diazaspiro[3.4]octan-6-yl)-5,6,7,8-tetrahydro-4-quinazolinyl)amino)hexanamide] was run?
**A.** 4.42 µM

**Q.** And the IC50 [2]?
**A.** 2.26 µM

**Q.** What about the IC50 [3] of the same compound?
**A.** > 5 µM

**Q.** How did the IC50 [1, 5] turn out when `C=CC(=O)N1CC2(CCN(c3nc(N[C@H](CC(=O)NC)CC(C)C)c4ccn(C)c4n3)C2)C1` [Example 1-16, (3S)-N,5-dimethyl-3-((7-methyl-2-(2-(2-propenoyl)-2,6-diazaspiro[3.4]octan-6-yl)-7H-pyrrolo[2,3-d]pyrimidin-4-yl)amino)hexanamide] was run?
**A.** 0.918 µM

**Q.** What about the IC50 [2] of the same compound?
**A.** 4.6 µM

**Q.** What about the IC50 [3] of the same compound?
**A.** > 25 µM

**Q.** For `C=CC(=O)N1CC2(CCN(c3nc(N[C@H](CC(=O)NC)CC(C)C)c4ncn(C)c4n3)C2)C1` [Example 1-17, (3S)-N,5-dimethyl-3-((9-methyl-2-(2-(2-propenoyl)-2,6-diazaspiro[3.4]octan-6-yl)-9H-purin-6-yl)amino)hexanamide], which IC50 [1, 4] is on record?
**A.** 8.79 µM

**Q.** What about the IC50 [2] of the same compound?
**A.** 2.46 µM

**Q.** What about the IC50 [3] of the same compound?
**A.** > 25 µM

**Q.** How did the IC50 [1, 4] turn out when `C=CC(=O)N1CC2(C1)CN(c1nc(N[C@H](CC(=O)NC)CC(C)C)c3ccccc3n1)CC2(F)F` [Example 1-18, (3S)-3-((2-(8,8-difluoro-2-(2-propenoyl)-2,6-diazaspiro[3.4]octan-6-yl)-4-quinazolinyl)amino)-N,5-dimethylhexanamide] was run?
**A.** 0.334 µM

**Q.** And the IC50 [2]?
**A.** 0.971 µM

**Q.** And the IC50 [3]?
**A.** 6.25 µM

**Q.** With `C=CC(=O)N1CC2(CCN(c3nc4c(c(N[C@H](CC(=O)NC)CC(C)C)n3)CCC(C)(C)C4)C2)C1` [Example 1-29, (3S)-3-((7,7-dimethyl-2-(2-(2-propenoyl)-2,6-diazaspiro[3.4]octan-6-yl)-5,6,7,8-tetrahydro-4-quinazolinyl)amino)-N,5-dimethylhexanamide] as the compound, how does the IC50 [2] read?
**A.** 0.031 µM

**Q.** What about the IC50 [3] of the same compound?
**A.** > 25 µM

**Q.** `C=CC(=O)N1CC2(CCN(c3nc4c(c(N[C@@H](CC(C)C)Cn5ccnn5)n3)CCC(C)(C)C4)C2)C1` [Example 1-47, 1-(6-(7,7-dimethyl-4-(((2S)-4-methyl-1-(1H-1,2,3-triazol-1-yl)-2-pentanyl)amino)-5,6,7,8-tetrahydro-2H-quinazolinyl)-2,6-diazaspiro[3.4]octan-2-yl)-2-propen-1-one] was tested. Which IC50 [2] did it give?
**A.** 0.485 µM

**Q.** What about the IC50 [3] of the same compound?
**A.** 14.1 µM
